Data taken from patent US20020086893A1, “Medicament” (SmithKline Beecham p.l.c., priority 1990, published 2002).
Counter-ions that a name gives are not always drawn.

melting point [°C]	Structure (SMILES)
254 to 255	CCCCc1nc2cc(Br)cc(C(=O)O)c2n1Cc1ccccc1Cl [Example 4, 5-Bromo-2-n-butyl-1-(2-chlorophenyl)methyl-1H-benzimidazole-7-carboxylic Acid]
118 to 120	CCCCc1ncc(CC(Cc2ccccc2)C(=O)O)n1Cc1ccccc1Cl (stereo not drawn) (as salt: hydrochloride) [Example 2, 3-[2-n-Butyl-1-{(2-chlorophenyl)methyl}-1H-imidazol-5-yl]-2-benzylpropanoic Acid]
178 to 181	CCCSc1ncc(C[C@H](NC(=O)CCC)C(=O)O)n1Cc1ccccc1Cl [Example 1, 3-[(2-Chlorophenyl)methyl]-2-propylthio-N-butyrylhistidine]
